The source of these data is patent publication US4735959A, “Carboxylic acid amides and pharmaceutical compositions containing them” (Dr. Karl Thomae GmbH, priority 1981, dated 1988).

The subject of this test is blood-sugar. Briefly: Blood-sugar lowering activity in starved female rats after oral administration. Type of test: in vivo. Particulars: for change in vivo at 1 mg/kg / change in vivo at 5 mg/kg / change in vivo at 0.6 mg/kg: Rattus norvegicus, po, read-out: Blood-sugar lowering activity, percent as compared with the controls; for change in vivo at 1 mg/kg / Blood-sugar lowering activity, percent as compared with the controls / change in vivo at 5 mg/kg: n.s. = not statistically significant; for change in vivo at 0.6 mg/kg: 0.6 mg/kg orally. The procedure: The blood-sugar lowering activity of the test compounds was determined in home-bred female rats with weights of from 180 to 220 grams. Twenty-four hours before starting the test the animals were starved. Before the test the compounds were suspended in 1.5% methyl cellulose and administered to the animals by means of an esophageal tube.
Blood was taken from the retroorbital plexus vein before administration of the test compounds as well as each of 1, 2, 3, and 4 hours after administration. Fifty microliters of each sample were deproteinized with 0.5 ml of 0.33N perchloric acid and centrifuged. The glucose content was determined in the supernatant according to the Hexokinase method by means of an analysis photometer. The statistical evalulation was performed with the t-test according to Student with p=0.05.

Where two headings read alike, the source gives them in different places.

Turning to `CC(NC(=O)Cc1ccc(C(=O)O)cc1)c1ccccc1N1CCCCC1` (single isomer, unassigned; (+)) [AU, (+)-4-[(1-(2-Piperidino-phenyl)-1-ethyl)-aminocarbonylmethyl]-benzoic acid], the change in vivo at 1 mg/kg is, setting by setting: (1 mg/kg orally, 1 hour) -41%; (1 mg/kg orally, 2 hours) -22%; (1 mg/kg orally, 3 hours) -17%; (1 mg/kg orally, 4 hours) -15%.

Regarding `CCCC(NC(=O)Cc1ccc(C(=O)O)cc1)c1ccccc1N1CCCCC1` (single isomer, unassigned; (+)) [K, (+)-4-[(1-(2-Piperidino-phenyl)-1-butyl)-aminocarbonylmethyl]-benzoic acid], the change in vivo at 1 mg/kg was -41% (1 mg/kg orally, 1 hour); -43% (1 mg/kg orally, 2 hours); -38% (1 mg/kg orally, 3 hours); -31% (1 mg/kg orally, 4 hours).

In the case of `CCCC(NC(=O)Cc1ccc(C(=O)OCC)cc1)c1ccccc1N1CCCCC1` (single isomer, unassigned; (+)) [L, (+)-4-[(1-(2-Piperidino-phenyl)-1-butyl)-aminocarbonylmethyl]-benzoic acid ethyl ester], the “Blood-sugar lowering activity, percent as compared with the controls” value (“Blood-sugar lowering activity, percent” for short) (1 mg/kg orally, 4 hours) was “n.s”. Moreover, the change in vivo at 1 mg/kg (1 mg/kg orally, 1 hour) was -14%; the change in vivo at 1 mg/kg (1 mg/kg orally, 2 hours) is -18%; the change in vivo at 1 mg/kg (1 mg/kg orally, 3 hours) is -14%. Moreover, the change in vivo at 5 mg/kg (5 mg/kg orally, 1 hour) was -42%; the change in vivo at 5 mg/kg (5 mg/kg orally, 2 hours) is -45%; the change in vivo at 5 mg/kg (5 mg/kg orally, 3 hours) is -31%; the change in vivo at 5 mg/kg (5 mg/kg orally, 4 hours) was -22%.

For `O=C(Cc1ccc(C(=O)O)cc1)NC(c1ccccc1)c1ccccc1N1CCCCC1` (single isomer, unassigned; (-)) [AW, (-)-4-[(2-Piperidino-benzhydryl)-aminocarbonylmethyl]-benzoic acid], the change in vivo at 0.6 mg/kg was -40% (1 hour), -34% (2 hours), -31% (3 hours) and -26% (4 hours).

Turning to `O=C(Cc1ccc(C(=O)O)cc1)NC(c1cccc(Cl)c1)c1ccccc1N1CCCCC1` (stereo not drawn) [AF, 4-[(α-(3-Chloro-phenyl)-2-piperidino-benzyl)-aminocarbonylmethyl]-benzoic acid], the “Blood-sugar lowering activity, percent” value reads like this: (1 mg/kg orally, 3 hours) “n.s”; (1 mg/kg orally, 4 hours) “n.s”. The change in vivo at 1 mg/kg was -17% (1 mg/kg orally, 1 hour) and -19% (1 mg/kg orally, 2 hours). For the same compound, the change in vivo at 5 mg/kg runs as follows: (5 mg/kg orally, 1 hour) -43%; (5 mg/kg orally, 2 hours) -39%; (5 mg/kg orally, 3 hours) -30%; (5 mg/kg orally, 4 hours) -26%.

Take `O=C(Cc1ccc(C(=O)O)cc1)NC(c1ccncc1)c1ccccc1N1CCCCC1` (stereo not drawn) [AH, 4-[(2-Piperidino-α-(4-pyridyl)-benzyl)-aminocarbonylmethyl]-benzoic acid]: the “Blood-sugar lowering activity, percent” value by setting is: (1 mg/kg orally, 3 hours) “n.s”; (1 mg/kg orally, 4 hours) “n.s”; (5 mg/kg orally, 4 hours) “n.s”. The change in vivo at 1 mg/kg was -26% (1 mg/kg orally, 1 hour) and -14% (1 mg/kg orally, 2 hours). Besides, the change in vivo at 5 mg/kg is, setting by setting: (5 mg/kg orally, 1 hour) -41%; (5 mg/kg orally, 2 hours) -37%; (5 mg/kg orally, 3 hours) -20%.

Turning to `O=C(Cc1ccc(C(=O)O)cc1)NC(c1ccccc1)c1c(Cl)cccc1N1CCCCC1` (stereo not drawn) [AJ, 4-[(6-Chloro-α-phenyl-2-piperidino-benzyl)-aminocarbonylmethyl]-benzoic acid], the change in vivo at 1 mg/kg is -35% (1 mg/kg orally, 1 hour); -34% (1 mg/kg orally, 2 hours); -28% (1 mg/kg orally, 3 hours); -20% (1 mg/kg orally, 4 hours). Further, the change in vivo at 5 mg/kg by setting is: (5 mg/kg orally, 1 hour) -44%; (5 mg/kg orally, 2 hours) -40%; (5 mg/kg orally, 3 hours) -39%; (5 mg/kg orally, 4 hours) -40%.
